In ChEMBL document CHEMBL1139733, “Aminopyridine carboxamides as c-Jun N-terminal kinase inhibitors: targeting the gatekeeper residue and beyond” (Bioorg Med Chem Lett, 2006):

Key:
[1] = target: Mitogen-activated protein kinase 9 (Homo sapiens, UniProt P45984); assay: Inhibition of JNK2 by ATF2 phosphorylation assay; format: functional
[2] = target: c-Jun N-terminal kinase, JNK (Homo sapiens, UniProt P45983+P53779+P45984); assay: Inhibition of PcJun phosphorylation in HepG2 cells; format: functional, cell-based
[3] = target: Mitogen-activated protein kinase 8 (Homo sapiens, UniProt P45983); assay: Inhibition of JNK1 by ATF2 phosphorylation assay; format: functional
Mitogen-activated protein kinase 8, sequence (P45983 whole entry): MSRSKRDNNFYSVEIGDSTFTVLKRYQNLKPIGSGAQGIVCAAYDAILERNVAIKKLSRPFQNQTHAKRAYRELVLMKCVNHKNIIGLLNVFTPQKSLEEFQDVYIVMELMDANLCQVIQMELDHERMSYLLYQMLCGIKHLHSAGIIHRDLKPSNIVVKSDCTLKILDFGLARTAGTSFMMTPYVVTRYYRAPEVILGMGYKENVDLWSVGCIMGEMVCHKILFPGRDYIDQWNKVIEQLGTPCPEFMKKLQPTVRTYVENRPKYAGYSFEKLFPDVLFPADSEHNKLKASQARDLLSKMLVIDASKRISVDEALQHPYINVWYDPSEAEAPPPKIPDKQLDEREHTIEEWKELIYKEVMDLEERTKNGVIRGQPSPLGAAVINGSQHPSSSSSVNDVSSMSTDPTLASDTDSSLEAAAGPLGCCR

Mitogen-activated protein kinase 9, sequence (P45984 whole entry): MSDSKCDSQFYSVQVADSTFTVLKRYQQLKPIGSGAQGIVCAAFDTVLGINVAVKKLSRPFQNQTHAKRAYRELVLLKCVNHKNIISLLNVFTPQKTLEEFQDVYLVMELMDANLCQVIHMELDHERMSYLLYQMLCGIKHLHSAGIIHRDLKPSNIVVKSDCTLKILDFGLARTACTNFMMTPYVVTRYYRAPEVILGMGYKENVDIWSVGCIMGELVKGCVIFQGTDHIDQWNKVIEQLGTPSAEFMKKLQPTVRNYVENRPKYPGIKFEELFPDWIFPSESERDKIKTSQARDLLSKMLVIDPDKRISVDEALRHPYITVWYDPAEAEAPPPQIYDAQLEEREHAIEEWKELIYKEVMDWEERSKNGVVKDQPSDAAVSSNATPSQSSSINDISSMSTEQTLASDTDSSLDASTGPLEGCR

CC(C)Oc1nc(C(=O)NCc2ccc(S(C)(=O)=O)cc2)cc(N)c1C#N
IC50 [1]: 38 nM
IC50 [2]: 250 nM
IC50 [3]: 15 nM

COc1cccc(-c2nc(C(=O)NCc3ccc(S(C)(=O)=O)cc3)cc(N)c2C#N)c1
IC50 [1]: 600 nM
IC50 [2]: 1800 nM
IC50 [3]: 430 nM

CS(=O)(=O)c1ccc(CNC(=O)c2cc(N)c(C#N)c(NCCCO)n2)cc1
IC50 [1]: 180 nM
IC50 [2]: 8300 nM
IC50 [3]: 54 nM

C#Cc1c(N)cc(C(=O)NCc2ccc(S(C)(=O)=O)cc2)nc1OCC
IC50 [1]: 300 nM
IC50 [2]: 1890 nM
IC50 [3]: 350 nM

CS(=O)(=O)c1ccc(CNC(=O)c2cc(N)c(C#N)c(/C=C/C(=O)O)n2)cc1
IC50 [1]: 430 nM
IC50 [2]: > 2500 nM
IC50 [3]: 300 nM

CCOc1nc(C(=O)NCc2ccc(S(C)(=O)=O)cc2)cc(N)c1/C=C/c1ccccc1
IC50 [1]: 4130 nM
IC50 [2]: 6920 nM
IC50 [3]: 2430 nM

CS(=O)(=O)c1ccc(CNC(=O)c2cc(N)c(C#N)c(NCCNC(N)=O)n2)cc1
IC50 [2]: > 10000 nM
IC50 [3]: 93 nM

CS(=O)(=O)c1ccc(CNC(=O)c2cc(N)c(C#N)c(-c3ccsc3CNCc3ccccc3)n2)cc1
IC50 [2]: 8010 nM
IC50 [3]: 1990 nM

CS(=O)(=O)c1ccc(CNC(=O)c2cc(N)c(C#N)c(-c3cccc(O)c3)n2)cc1
IC50 [1]: 240 nM
IC50 [2]: 9400 nM
IC50 [3]: 200 nM

COCCNc1nc(C(=O)NCc2ccc(S(C)(=O)=O)cc2)cc(N)c1C#N
IC50 [1]: 210 nM
IC50 [2]: 5900 nM
IC50 [3]: 120 nM

CS(=O)(=O)c1ccc(CNC(=O)c2cc(N)c(C#N)c(-c3cccnc3)n2)cc1
IC50 [1]: 340 nM
IC50 [2]: 7300 nM
IC50 [3]: 320 nM

CS(=O)(=O)c1ccc(CNC(=O)c2cc(N)c(C#N)c(/C=C/CCO)n2)cc1
IC50 [1]: 240 nM
IC50 [2]: 5300 nM
IC50 [3]: 170 nM

C/C=C\c1nc(C(=O)NCc2ccc(S(C)(=O)=O)cc2)cc(N)c1C#N
IC50 [1]: 260 nM
IC50 [2]: 5500 nM
IC50 [3]: 150 nM

CS(=O)(=O)c1ccc(CNC(=O)c2cc(N)c(C#N)c(NC3CCC3)n2)cc1
IC50 [1]: 160 nM
IC50 [2]: 620 nM
IC50 [3]: 85 nM

CS(=O)(=O)c1ccc(CNC(=O)c2cc(N)c(C#N)c(NCCc3ccccc3)n2)cc1
IC50 [1]: 1000 nM
IC50 [2]: 2700 nM
IC50 [3]: 260 nM

CS(=O)(=O)c1ccc(CNC(=O)c2cc(N)c(C#N)c(NCCO)n2)cc1
IC50 [1]: 150 nM
IC50 [2]: > 10000 nM
IC50 [3]: 93 nM

C[C@@H](CO)Nc1nc(C(=O)NCc2ccc(S(C)(=O)=O)cc2)cc(N)c1C#N
IC50 [1]: 30 nM
IC50 [2]: 2600 nM
IC50 [3]: 22 nM

C#C/C=C/c1c(N)cc(C(=O)NCc2ccc(S(C)(=O)=O)cc2)nc1OCC
IC50 [1]: 300 nM
IC50 [2]: 1400 nM
IC50 [3]: 79 nM

CN(C)CCNc1nc(C(=O)NCc2ccc(S(C)(=O)=O)cc2)cc(N)c1C#N
IC50 [1]: 9200 nM
IC50 [3]: 7300 nM

CS(=O)(=O)c1ccc(CNC(=O)c2cc(N)c(C#N)c(NC3CC3)n2)cc1
IC50 [1]: 69 nM
IC50 [2]: 1200 nM
IC50 [3]: 32 nM

CCCNC(=O)c1c(N)cc(C(=O)NCc2ccc(S(C)(=O)=O)cc2)nc1OCC
IC50 [3]: 5250 nM

CS(=O)(=O)c1ccc(CNC(=O)c2cc(N)c(C#N)c(CCC(=O)O)n2)cc1
IC50 [1]: 6920 nM
IC50 [3]: 1640 nM

C/C=C/c1nc(C(=O)NCc2ccc(S(C)(=O)=O)cc2)cc(N)c1C#N
IC50 [1]: 230 nM
IC50 [2]: 890 nM
IC50 [3]: 48 nM

CCOc1nc(C(=O)NCc2ccc(S(C)(=O)=O)cc2)cc(N)c1C#CCCO
IC50 [1]: 4610 nM
IC50 [2]: 7360 nM
IC50 [3]: 2240 nM

CS(=O)(=O)c1ccc(CNC(=O)c2cc(N)c(C#N)c(-c3ccncc3)n2)cc1
IC50 [1]: 660 nM
IC50 [3]: 530 nM

C=Cc1c(N)cc(C(=O)NCc2ccc(S(C)(=O)=O)cc2)nc1OCC
IC50 [1]: 1460 nM
IC50 [2]: 4630 nM
IC50 [3]: 1180 nM

CCOc1nc(C(=O)NCc2ccc(S(C)(=O)=O)cc2)cc(N)c1C#CCO
IC50 [2]: 5700 nM
IC50 [3]: 1090 nM

CCOc1nc(C(=O)NCc2ccc(S(C)(=O)=O)cc2)cc(N)c1/C=C/C(C)(C)C
IC50 [1]: 4160 nM
IC50 [2]: > 10000 nM
IC50 [3]: 2930 nM

CS(=O)(=O)c1ccc(CNC(=O)c2cc(N)c(C#N)c(-c3ccoc3)n2)cc1
IC50 [1]: 530 nM
IC50 [2]: 4300 nM
IC50 [3]: 270 nM

CS(=O)(=O)c1ccc(CNC(=O)c2cc(N)c(C#N)c(NC3CCCC3)n2)cc1
IC50 [1]: 290 nM
IC50 [2]: 480 nM
IC50 [3]: 96 nM

CCOc1nc(C(=O)NCc2ccc(S(C)(=O)=O)cc2)cc(N)c1C#C/C=C/CO
IC50 [1]: 4320 nM
IC50 [2]: 5240 nM
IC50 [3]: 1550 nM

COc1ccc(Oc2nc(C(=O)NCc3ccc(S(C)(=O)=O)cc3)cc(N)c2C#N)cc1
IC50 [1]: 450 nM
IC50 [3]: 420 nM

CC(C)NC(=O)c1nc(C(=O)NCc2ccc(S(C)(=O)=O)cc2)cc(N)c1C#N
IC50 [1]: 120 nM
IC50 [2]: 2900 nM
IC50 [3]: 430 nM

CS(=O)(=O)c1ccc(CNC(=O)c2cc(N)c(C#N)c(-c3ccc(C(=O)O)s3)n2)cc1
IC50 [1]: 160 nM
IC50 [2]: > 10000 nM
IC50 [3]: 250 nM

CS(=O)(=O)c1ccc(CNC(=O)c2cc(N)c(C#N)c(NCc3ccccc3)n2)cc1
IC50 [1]: 4700 nM
IC50 [3]: 820 nM

CC(C)COc1nc(C(=O)NCc2ccc(S(C)(=O)=O)cc2)cc(N)c1C#N
IC50 [1]: 370 nM
IC50 [2]: 700 nM
IC50 [3]: 88 nM

CS(=O)(=O)c1ccc(CNC(=O)c2cc(N)c(C#N)c(-c3cccc(Cl)c3)n2)cc1
IC50 [1]: 840 nM
IC50 [2]: 1200 nM
IC50 [3]: 1180 nM

CS(=O)(=O)c1ccc(CNC(=O)c2cc(N)c(C#N)c(OCC3CC3)n2)cc1
IC50 [1]: 47 nM
IC50 [2]: 560 nM
IC50 [3]: 23 nM

CCOc1nc(C(=O)NCc2ccc(S(C)(=O)=O)cc2)cc(N)c1/C=C/C#N
IC50 [1]: 1790 nM
IC50 [2]: 807 nM
IC50 [3]: 410 nM

CC(C)Nc1nc(C(=O)NCc2ccc(S(C)(=O)=O)cc2)cc(N)c1C#N
IC50 [1]: 84 nM
IC50 [2]: 490 nM
IC50 [3]: 67 nM

C[C@H](CO)Nc1nc(C(=O)NCc2ccc(S(C)(=O)=O)cc2)cc(N)c1C#N
IC50 [1]: 320 nM
IC50 [2]: > 10000 nM
IC50 [3]: 180 nM

CS(=O)(=O)c1ccc(CNC(=O)c2cc(N)c(C#N)c(-c3ccsc3)n2)cc1
IC50 [1]: 390 nM
IC50 [2]: 610 nM
IC50 [3]: 81 nM

CS(=O)(=O)c1ccc(CNC(=O)c2cc(N)c(C#N)c(NCCN)n2)cc1
IC50 [3]: 1600 nM

CC(=O)NCCNc1nc(C(=O)NCc2ccc(S(C)(=O)=O)cc2)cc(N)c1C#N
IC50 [1]: 81 nM
IC50 [2]: > 10000 nM
IC50 [3]: 59 nM

CCOc1nc(C(=O)NCc2ccc(S(C)(=O)=O)cc2)cc(N)c1C#Cc1ccsc1
IC50 [1]: > 10000 nM
IC50 [3]: 3430 nM

CS(=O)(=O)c1ccc(CNC(=O)c2cc(N)c(C#N)c(OCC3CCCC3)n2)cc1
IC50 [1]: 610 nM
IC50 [2]: 490 nM
IC50 [3]: 390 nM

CCCCC#Cc1c(N)cc(C(=O)NCc2ccc(S(C)(=O)=O)cc2)nc1OCC
IC50 [3]: > 10000 nM

CS(=O)(=O)c1ccc(CNC(=O)c2cc(N)c(C#N)c(/C=C/c3ccccc3)n2)cc1
IC50 [1]: 1290 nM
IC50 [2]: 350 nM
IC50 [3]: 1450 nM

CS(=O)(=O)c1ccc(CNC(=O)c2cc(N)c(C#N)c(-c3cncnc3)n2)cc1
IC50 [1]: 860 nM
IC50 [2]: > 10000 nM
IC50 [3]: 620 nM

CS(=O)(=O)c1ccc(CNC(=O)c2cc(N)c(C#N)c(-c3ccsc3CO)n2)cc1
IC50 [1]: 680 nM
IC50 [2]: 10800 nM
IC50 [3]: 570 nM

CCOc1nc(C(=O)NCc2ccc(S(C)(=O)=O)cc2)cc(N)c1C(N)=O
IC50 [1]: 969 nM
IC50 [2]: 7540 nM
IC50 [3]: 318 nM

CC(C)[C@@H](CO)Nc1nc(C(=O)NCc2ccc(S(C)(=O)=O)cc2)cc(N)c1C#N
IC50 [1]: 1400 nM
IC50 [3]: 1500 nM

CS(=O)(=O)c1ccc(CNC(=O)c2cc(N)c(C#N)c(-c3cccc(S(C)(=O)=O)c3)n2)cc1
IC50 [1]: 97 nM
IC50 [2]: 10500 nM
IC50 [3]: 43 nM

CS(=O)(=O)c1ccc(CNC(=O)c2cc(N)c(C#N)c(NC(CO)CO)n2)cc1
IC50 [1]: 100 nM
IC50 [2]: > 10000 nM
IC50 [3]: 76 nM

CS(=O)(=O)c1ccc(CNC(=O)c2cc(N)c(C#N)c(NCCC(N)=O)n2)cc1
IC50 [1]: 87 nM
IC50 [2]: > 10000 nM
IC50 [3]: 66 nM
